{"source": "patent US9738591B2", "about": "“Antimicrobial compounds” (priority 2009, dated 2017)", "key": {"[1]": {"system": "Staphylococcus xylosus ATCC 29971", "assay": "Disk diffusion", "conditions": "10 mg/ml, 20 μl"}, "[2]": {"system": "Yersinia enterocolitica clinical 26609", "assay": "Disk diffusion", "conditions": "10 mg/ml, 20 μl; repeat, strain clinical 26609"}, "[3]": {"system": "Micrococcus luteus ATCC 10240", "assay": "Disk diffusion", "conditions": "10 mg/ml, 20 μl"}, "[4]": {"system": "Staphylococcus epidermidis ATCC 12228", "assay": "Disk diffusion", "conditions": "for zone of inhibition at 10000 µg/mL: Staphylococcus epidermidis"}, "[5]": {"system": "Moraxella catarrhalis NCTC 3625", "assay": "Disk diffusion", "conditions": "10 mg/ml, 20 μl; repeat, strain NCTC 3625"}, "[6]": {"system": "Salmonella enterica subsp. enterica serovar Typhimurium ATCC 13311", "assay": "Disk diffusion", "conditions": "10 mg/ml, 20 μl; repeat"}, "[7]": {"system": "Streptococcus pneumoniae strain 12213", "assay": "Disk diffusion", "assay_type": "cell-based", "conditions": "10 mg/ml, 20 μl"}, "[8]": {"system": "Streptococcus pyogenes NCTC 8191", "assay": "Disk diffusion", "conditions": "10 mg/ml, 20 μl"}, "[9]": {"system": "Bacillus cereus ATCC 13061", "assay": "Disk diffusion", "conditions": "10 mg/ml, 20 μl"}, "[10]": {"system": "Bacillus subtilis ATCC 6633", "assay": "Disk diffusion", "conditions": "10 mg/ml, 20 μl"}, "S. pyogenes NCTC 8302": {"system": "S. pyogenes NCTC 8302", "assay": "MIC and MBC by broth microdilution", "assay_type": "cell-based", "conditions": "Streptococcus pyogenes, NCTC8302, CA-MHB+LHB, two independent replicates", "protocol": "(§1) The method used was based on CLSI protocols for broth microdilution testing of these species. As recommended by CLSI, inocula were prepared by direct colony suspension, and the media used were cation-adjusted Mueller Hinton broth (CA-MHB) for Staphylococcus spp. and CA-MHB containing 5% lysed horse blood (CA-MHB+LHB) for Streptococcus spp. Briefly, 24 h blood agar plate (BA) cultures of Staphylococcus aureus strains NCTC 6571, ATCC 29213, ATCC 33592 (MRSA) and NCTC 10442 (MRSA), Staphylococcus epidermidis ATCC 29971, Staphylococcus xylosus ATCC 29971, Streptococcus pneumoniae strains ATCC 49619 and ATCC 6305, and Streptococcus pyogenes strains NCTC 8191 and NCTC 8302 were used to prepare 0.5 McFarland suspensions in saline. Two 640 μg/ml working stocks of TSB007 were prepared from a fresh master stock, one in CA-MHB for testing against the Staphylococcus spp. and the other in CA-MHB+LHB for testing against Streptococcus spp. The working stocks were further diluted 1/10 in these broths for adding to microtitre trays to test MICs of 32, 16, 8, 4, 2, 1, 0.5, 0.25, 0.125 and 0.06 μg/ml.\n(§2) The wells of two 96-well microtitre trays (one for Staphylococcus spp. and one for Streptococcus spp.) were filled with 100 μl of the appropriate broth, except for the first column. The last column, a sterility control containing no TSB007 or inoculum, was filled with an additional 100 μl broth. Then 100 μl of the 64 μg/ml TSB007 solution was added to the first two columns, the contents of column 2 was mixed, then 100 μl of this was used in two-fold serial dilutions along the rest of the tray except the last two columns. The final 100 μl was discarded. […] Finally, to the first 11 wells of one row per strain, 100 μl of a 10^−2 dilution (in the appropriate broth) of the 0.5 McFarland suspension was added. The microtitre trays were then incubated at 35° C. for 24 h before the MICs were read visually. Wells were further subcultured (10 μl drop onto BA then incubated at 35° C. for 24 h) and colonies subsequently counted to determine minimum bactericidal concentrations (MBCs). The concentration of the initial inoculum was confirmed on BA by counting colonies from 2×10 μl spots of 10^−5 dilutions of the 0.5 McFarland suspensions. Testing was performed on two separate occasions."}, "[11]": {"system": "S. aureus NCTC 10442 (MRSA)", "assay": "MIC and MBC by broth microdilution", "assay_type": "cell-based", "conditions": "Staphylococcus aureus, CA-MHB, two independent replicates", "protocol": "as §1, §2"}, "S. aureus NCTC 6571": {"system": "S. aureus NCTC 6571", "assay": "MIC and MBC by broth microdilution", "assay_type": "cell-based", "conditions": "Staphylococcus aureus, NCTC6571, CA-MHB, two independent replicates", "protocol": "as §1, §2"}, "S. pneumoniae ATCC 6305": {"system": "S. pneumoniae ATCC 6305", "assay": "MIC and MBC by broth microdilution", "assay_type": "cell-based", "conditions": "Streptococcus pneumoniae, ATCC6305, CA-MHB+LHB, two independent replicates", "protocol": "as §1, §2"}, "[12]": {"system": "S. aureus ATCC 33592 (MRSA)", "assay": "MIC and MBC by broth microdilution", "assay_type": "cell-based", "conditions": "Staphylococcus aureus, CA-MHB, two independent replicates", "protocol": "as §1, §2"}, "S. aureus ATCC 29213": {"system": "S. aureus ATCC 29213", "assay": "MIC and MBC by broth microdilution", "assay_type": "cell-based", "conditions": "Staphylococcus aureus, ATCC29213, CA-MHB, two independent replicates", "protocol": "as §1, §2"}, "[13]": {"system": "S. typhimurium TA98, TA100 and TA1535", "assay": "Ames Test for mutagenic activity, no metabolic activation", "conditions": "for Number of colonies: duplicate plates"}, "[14]": {"system": "Enterococcus faecalis NCTC 775", "assay": "Disk diffusion", "conditions": "10 mg/ml, 20 μl"}}, "note": "Values joined by “and” are separate entries in the source; they are usually repeats but may differ in a detail not shown here. Equal values may be shown once. Read-outs that look alike come from different tables or passages of the source.", "data": [{"compound": "O=C(O)c1ccc(/C=C/c2cc(/C=C/c3ccc(C(=O)O)cc3)cc(/C=C/c3ccc(C(=O)O)cc3)c2)cc1", "note": "[TSB007]", "values": [{"measurement": "Zone diameters, 24 h TSB007", "setting": "[1]; 24 h", "result": 17, "unit": "trim"}, {"measurement": "Zone diameters, Repeat Results", "setting": "[1]; repeat", "result": 18, "unit": "trim"}, {"measurement": "Zone diameters, Repeat Results", "setting": "[2]", "result": 8, "unit": "trim"}, {"measurement": "Zone diameters, 24 h TSB007", "setting": "[3]; 24 h", "result": 26, "unit": "trim"}, {"measurement": "Zone diameters, 48 h TSB007", "setting": "[3]; 48 h", "result": 26, "unit": "trim"}, {"measurement": "Zone diameters, Repeat Results", "setting": "[3]; repeat", "result": 32, "unit": "trim"}, {"measurement": "Zone diameters, 24 h TSB007", "setting": "[4]; 10 mg/ml, 20 μl, 24 h", "result": 22, "unit": "trim"}, {"measurement": "Zone diameters, 48 h TSB007", "setting": "[4]; 10 mg/ml, 20 μl, 48 h", "result": 22, "unit": "trim"}, {"measurement": "Zone diameters, Repeat Results", "setting": "[4]; 10 mg/ml, 20 μl, repeat", "result": 20, "unit": "trim"}, {"measurement": "zone of inhibition at 10000 µg/mL", "setting": "[4]; ATCC12228, 24 h, read-out: Zone diameters, 24 h AnO2", "result": 22, "unit": "mm"}, {"measurement": "zone of inhibition at 10000 µg/mL", "setting": "[4]; ATCC12228, 24 h, read-out: Zone diameters, 24 h O2", "result": 18, "unit": "mm"}, {"measurement": "zone of inhibition at 10000 µg/mL", "setting": "[4]; ATCC12228, 48 h, read-out: Zone diameters, 48 h AnO2", "result": 22, "unit": "mm"}, {"measurement": "zone of inhibition at 10000 µg/mL", "setting": "[4]; ATCC12228, 48 h, read-out: Zone diameters, 48 h O2", "result": 18, "unit": "mm"}, {"measurement": "Zone diameters, Repeat Results", "setting": "[5]", "result": 36, "unit": "trim"}, {"measurement": "Zone diameters, Repeat Results", "setting": "[6]", "result": 11, "unit": "trim"}, {"measurement": "Zone diameters, Repeat Results", "setting": "[7]", "result": 26, "unit": "trim"}, {"measurement": "Zone diameters, 24 h TSB007", "setting": "[8]; 24 h, Mueller Hinton + Blood & Incubated in 5% CO2", "result": 14, "unit": "trim"}, {"measurement": "Zone diameters, 48 h TSB007", "setting": "[8]; 48 h, Mueller Hinton + Blood & Incubated in 5% CO2", "result": 14, "unit": "trim"}, {"measurement": "Zone diameters, Repeat Results", "setting": "[8]; repeat", "result": 17, "unit": "trim"}, {"measurement": "Zone diameters, 24 h TSB007", "setting": "[9]; 24 h", "result": 10, "unit": "trim"}, {"measurement": "Zone diameters, 48 h TSB007", "setting": "[9]; 48 h", "result": 9, "unit": "trim"}, {"measurement": "Zone diameters, Repeat Results", "setting": "[9]; repeat", "result": 9, "unit": "trim"}, {"measurement": "Zone diameters, 24 h TSB007", "setting": "[10]; 24 h", "result": 8, "unit": "trim"}, {"measurement": "Zone diameters, 48 h TSB007", "setting": "[10]; 48 h", "result": 8, "unit": "trim"}, {"measurement": "MIC", "setting": "S. pyogenes NCTC 8302; 35° C., 24 h", "result": "> 32", "unit": "µg/mL"}, {"measurement": "MBC", "setting": "S. pyogenes NCTC 8302", "result": "> 32", "unit": "µg/mL"}, {"measurement": "MIC", "setting": "[11]; 35° C., 24 h", "result": "2 to 4", "unit": "µg/mL"}, {"measurement": "MBC", "setting": "[11]", "result": "> 32", "unit": "µg/mL"}, {"measurement": "MIC", "setting": "S. aureus NCTC 6571; 35° C., 24 h", "result": "2 to 4", "unit": "µg/mL"}, {"measurement": "MBC", "setting": "S. aureus NCTC 6571", "result": "> 32", "unit": "µg/mL"}, {"measurement": "MIC", "setting": "S. pneumoniae ATCC 6305; 35° C., 24 h", "result": "> 32", "unit": "µg/mL"}, {"measurement": "MBC", "setting": "S. pneumoniae ATCC 6305", "result": "> 32", "unit": "µg/mL"}, {"measurement": "MIC", "setting": "[12]; 35° C., 24 h", "result": "2 to 4", "unit": "µg/mL"}, {"measurement": "MBC", "setting": "[12]", "result": "> 32", "unit": "µg/mL"}, {"measurement": "MIC", "setting": "S. aureus ATCC 29213; 35° C., 24 h", "result": 4, "unit": "µg/mL"}, {"measurement": "MBC", "setting": "S. aureus ATCC 29213", "result": "> 32", "unit": "µg/mL"}, {"measurement": "Ames Test result", "setting": "[13]; 100, 300 and 1000 μg/plate, TA98, TA100, TA1535, no metabolic activation", "result": "negative"}, {"measurement": "Number of colonies", "setting": "[13]; TA98, 100 μg/plate, negative control 14, 12", "result": "16 and 13"}, {"measurement": "Number of colonies", "setting": "[13]; TA98, 300 μg/plate, negative control 14, 12", "result": 11}, {"measurement": "Number of colonies", "setting": "[13]; TA98, 1000 μg/plate, negative control 14, 12", "result": "3 and 2"}, {"measurement": "Number of colonies", "setting": "[13]; TA100, 100 μg/plate, negative control 113, 96", "result": "111 and 92"}, {"measurement": "Number of colonies", "setting": "[13]; TA100, 300 μg/plate, negative control 113, 96", "result": "110 and 105"}, {"measurement": "Number of colonies", "setting": "[13]; TA100, 1000 μg/plate, negative control 113, 96", "result": "88 and 89"}, {"measurement": "Number of colonies", "setting": "[13]; TA1535, 100 μg/plate, negative control 28, 29", "result": "17 and 29"}, {"measurement": "Number of colonies", "setting": "[13]; TA1535, 300 μg/plate, negative control 28, 29", "result": "16 and 24"}, {"measurement": "Number of colonies", "setting": "[13]; TA1535, 1000 μg/plate, negative control 28, 29", "result": 0}, {"measurement": "Zone diameters, 24 h TSB007", "setting": "[14]; 24 h", "result": 10, "unit": "trim"}, {"measurement": "Zone diameters, 48 h TSB007", "setting": "[14]; 48 h", "result": 10, "unit": "trim"}, {"measurement": "Zone diameters, Repeat Results", "setting": "[14]; repeat", "result": 8, "unit": "trim"}]}]}
